Earlier results on 3 substances are cited in US7452871B2, “Compositions and methods for treating mammals with modified alginates and modified pectins” (EcoNugenics, Inc., priority 1999, dated 2008).

One data set relates to cancer metastasis. The following applies: modified citrus pectin: oral administration.
For data set [1] the following is noted: rats.
The conditions of data set [2]: rats. The source holds these as a separate data set.

As for modified citrus pectin, the “suppressing or preventing metastases” value with cancer metastasis is given as “may be effective in suppressing or preventing metastases”.

As to AG-270, the cholesterol excretion entry in data set [1] is “enhanced cholesterol secretion”. Also, the “blood glucose levels after glucose administration” value in data set [2] is reported as “inhibited blood glucose levels from rising”.

With AG-10, the cholesterol excretion result in data set [1] is “enhanced cholesterol secretion”. For the same substance, the “blood glucose levels after glucose administration” value in data set [2] is “inhibited blood glucose levels from rising”.
